Assay results as given in patent US8722896B2, “Prokineticin receptor antagonists and uses thereof” (The Regents of the University of California, priority 2008, dated 2014).

Test system: not listed separately
Test: GTT in mice fed high-fat diet (diet-induced hyperglycemia)
Type: in vivo
Conditions: 40 mg/kg body weight, mice on high fat diet 8 weeks (FIG. 2)
Method: (§1) The compound (3R)-1-Benzyl-N-(9-chloro-3,4-dihydro-2H-1,5-benzodioxepin-7-ylmethyl)-N-isobutyl pyrrolidine-3-carboxamide (3Cl-R-PLP) was dissolved in PEG-400 and then resuspended in water with 8% final concentration of PEG-400.8% PEG-400 in water without drug was used as vehicle. Mice were fed with regular chow. Drug or vehicle was gavaged to mice that were fasted overnight. Two hours later, glucose (2 g/kg of body weight) was injected i.p. and whole venous blood obtained from the tail vein at 0, 15, 30, 90 and 120 min after the injection was measured for glucose by using an automatic glucometer (one Touch, Lifescan, Daly, Calif.).
High fat diet was fed to mice for 8 weeks to induced diet-induced hyperglycemia. GTT test was carried out as described earlier.

SMILES | glucose clearance in GTT
CC(C)CN(Cc1cc(Cl)c2c(c1)OCCCO2)C(=O)[C@@H]1CCN(Cc2ccccc2)C1 [Example 15, (3R)-1-Benzyl-N-(9-chloro-3,4-dihydro-2H-1,5-benzodioxepin-7-ylmethyl)-N-isobutyl pyrrolidine-3-carboxamide] | significantly improved glucose clearance

Test system: not listed separately
Test: Glucose tolerance test (GTT), mice fed regular chow
Type: in vivo
Conditions: 0, 1, 4, 12 and 40 mg/kg of body weight (FIG. 1B)
Method: as §1

SMILES | dose dependence of performance in GTT
CC(C)CN(Cc1cc(Cl)c2c(c1)OCCCO2)C(=O)[C@@H]1CCN(Cc2ccccc2)C1 [Example 15, (3R)-1-Benzyl-N-(9-chloro-3,4-dihydro-2H-1,5-benzodioxepin-7-ylmethyl)-N-isobutyl pyrrolidine-3-carboxamide] | dose-dependent effect

Same assay, conditions: 4 mg/kg of body weight, gavage 2 h before glucose 2 g/kg i.p., fasted mice, regular chow (FIG. 1A)

SMILES | glucose clearance in GTT
CC(C)CN(Cc1cc(Cl)c2c(c1)OCCCO2)C(=O)[C@@H]1CCN(Cc2ccccc2)C1 [Example 15, (3R)-1-Benzyl-N-(9-chloro-3,4-dihydro-2H-1,5-benzodioxepin-7-ylmethyl)-N-isobutyl pyrrolidine-3-carboxamide] | improved glucose clearance significantly

Test system: not listed separately
Test: Chronic treatment in db/db mice, glucose levels
Type: in vivo
Conditions: 0.1 mg/mL in drinking water, 2 weeks, 10-week old db/db mice, fed and fasting conditions (FIG. 4)
Method: Db/db mice are commonly used as genetic models of type II diabetes. 10-week old db/db mice were treated with 3Cl-R-PLP (0.1 mg/mL in drinking water) or vehicle for 2 weeks.

SMILES | glucose levels
CC(C)CN(Cc1cc(Cl)c2c(c1)OCCCO2)C(=O)[C@@H]1CCN(Cc2ccccc2)C1 [Example 15, (3R)-1-Benzyl-N-(9-chloro-3,4-dihydro-2H-1,5-benzodioxepin-7-ylmethyl)-N-isobutyl pyrrolidine-3-carboxamide] | significantly decreased glucose levels

Target: recombinant PKR1 (Homo sapiens (Human), UniProt Q8TCW9)
Test: Aequorin-based Ca2+ mobilization antagonist assay, CHO cells expressing PKR1
Type: cell-based
Conditions: not given
Method: An aequorin-based luminescent assay for calcium mobilization was used to measure mobilization of intracellular Ca^2+ (Bullock et al., Mol Pharmacol 65, 582-588, 2004). Chinese hamster ovary (CHO) cells stably expressing photoprotein aequorin and recombinant PKR1 or PKR2 were tested by this method. Briefly, the cells were charged in Opti-MEM (Invitrogen) containing 8 μM of coelenterazine cp at 37° C. for 2 hours. Cells were detached by brief typsinization and maintained in Hank's Balanced Salt Solution (HBSS) plus 10 mM HEPES (pH7.5) and 0.1% BSA at about 5×10^5 cells/ml. Luminescence measurements were made using a Berthold luminometer.
All compounds were diluted in HBSS plus 10 mM HEPES (pH7.5) and 0.1% BSA. To test the agonist activity, 100 μl of cells were injected into the tubes with 20 μl of compounds. For antagonist assays, 80 μl cells were incubated in the tubes with 20 μl different concentrations of antagonists at room temperature for 20 minutes, and then 100 μl of recombinant PK2 were injected. The IC50 obtained from the assays were then converted to Ki values using the formula: IC50/(1+[PK2]/EC50PK2).
The following compounds were prepared using the above synthetic routes and protocols by varying the starting materials, reagents or conditions used. The requisite reagents were either commercially available, described in the literature, or readily synthesized by one skilled in the art. The potency of these compounds in antagonizing PK2-stimulated calcium mobilization were tested in Chinese hamster ovary (CHO) cells that stably express recombinant PKR1 or PKR2.

SMILES | Ki [nM]
CC(C)CN(Cc1cc(Cl)c2c(c1)CCCCO2)C(=O)[C@@H]1CCCN(Cc2cccc3ccn(C)c23)C1 | 9.42
CC(C)CN(Cc1cc(Cl)c2c(c1)CCCCO2)C(=O)[C@@H]1CCN(Cc2cccc3c2ccn3C)C1 | 11.6
CC(C)CN(Cc1cc(Cl)c2c(c1)OCCCO2)C(=O)C(C)CNCc1cccc2c1OCO2 (centres unmarked) | 44.8
CC(C)CN(Cc1cc(Cl)c2c(c1)OCCCO2)C(=O)C(C)CNCc1cccc2ccn(C)c12 (centres unmarked) | 16.5
CC(C)CN(Cc1cc(Cl)c2c(c1)OCCCO2)C(=O)[C@@H]1CCCN(Cc2cccc3[nH]ccc23)C1 | 38
CC(C)CN(Cc1cc(Cl)c2c(c1)OCCCO2)C(=O)[C@@H]1CCCN(Cc2cccc3c2NCC3)C1 | 3.29
CC(C)CN(Cc1cc(Cl)c2c(c1)OCCCO2)C(=O)[C@@H]1CCN(Cc2ccc(F)c(N)c2)C1 | 24
CC(C)CN(Cc1cc(Cl)c2c(c1)OCCCO2)C(=O)[C@@H]1CCN(Cc2cccc(N)c2)C1 | 133
CC(C)CN(Cc1cc(Cl)c2c(c1)OCCCO2)C(=O)[C@H](C)CNCc1cc(F)c(F)cc1F | 258
CCc1c(C)cccc1CN1CC[C@@H](C(=O)N(Cc2cc(Cl)c3c(c2)OCCCO3)CC(C)C)C1 | 226
CCc1cccc(CN2CC[C@@H](C(=O)N(Cc3cc(Cl)c4c(c3)OCCCO4)CC(C)C)C2)c1 | 88.8
COc1ccccc1CN1CCC[C@@H](C(=O)N(Cc2cc(Cl)c3c(c2)OCCCO3)CC(C)C)C1 | 38.8
COc1ccccc1CN1CCC[C@@H](C(=O)N(Cc2ccc3c(c2)OCCCO3)CC(C)C)C1 | 38.6
COc1ccccc1CN1CC[C@@H](C(=O)N(Cc2ccc3c(c2)OCCCO3)CC(C)C)C1 | 12.8
Cc1cccc(CN2CCC[C@@H](C(=O)N(Cc3cc(Cl)c4c(c3)OCCCO4)CC(C)C)C2)c1 | 29.4
CC(C)CN(Cc1cc(Cl)c2c(c1)CCCCO2)C(=O)C1CN(Cc2cccc3cc[nH]c23)CCO1 (racemic) | 4.02
CC(C)CN(Cc1cc(Cl)c2c(c1)CCCCO2)C(=O)C1CN(Cc2cccc3ccn(C)c23)CCO1 (racemic) | 9.94
CC(C)CN(Cc1cc(Cl)c2c(c1)OCCCO2)C(=O)C(C)CNCc1cccc2c1OCCO2 (racemic) | 58.4
CC(C)CN(Cc1cc(Cl)c2c(c1)OCCCO2)C(=O)C1CCN(Cc2ccccc2)O1 (racemic) | 2200
CC(C)CN(Cc1cc(Cl)c2c(c1)OCCCO2)C(=O)C1CN(Cc2cccc3c2ccn3C)CCO1 (racemic) | 12.5
CC(C)CN(Cc1cc(Cl)c2c(c1)OCCCO2)C(=O)C1CN(Cc2cccc3ccn(C)c23)CCO1 (racemic) | 24.4
CCc1c(C)cccc1CNCC(C)C(=O)N(Cc1cc(Cl)c2c(c1)OCCCO2)CC(C)C (racemic) | 226
Cc1ccc(C)c(CN2CCOC(C(=O)N(Cc3cc(Cl)c4c(c3)OCCCO4)CC(C)C)C2)c1 (racemic) | 83
Cc1cccc(C)c1CNCC(C)C(=O)N(Cc1cc(Cl)c2c(c1)OCCCO2)CC(C)C (racemic) | 44
Cc1cccc(CNCC(C)C(=O)N(Cc2cc(Cl)c3c(c2)OCCCO3)CC(C)C)c1 (racemic) | 44.2
Cc1cccc(CNCC(C)C(=O)N(Cc2cc(Cl)c3c(c2)OCCCO3)CC(C)C)c1C (racemic) | 13
Cc1ccccc1CN1CCOC(C(=O)N(Cc2cc(Cl)c3c(c2)OCCCO3)CC(C)C)C1 (racemic) | 37.4
Cc1ccccc1CNCC(C)C(=O)N(Cc1cc(Cl)c2c(c1)OCCCO2)CC(C)C (racemic) | 19.6

Same assay, conditions: antagonism of PK2-stimulated calcium mobilization in CHO cells; Ki = IC50/(1+[PK2]/EC50PK2); read-out: Ki for PKR1

SMILES | Ki [nM]
COc1cc(F)ccc1CNCC(C)C(=O)N(Cc1cc(Cl)c2c(c1)OCCCO2)CC(C)C (racemic) [(±)-2-Methyl-3-((2-methoxy-4-fluoro)benzylamino)-N-(9-chloro-3,4-dihydro-2H-1,5-benzodioxepin-7-ylmethyl)-N-isobutylpropanamide] | 50
COc1cc(CNCC(C)C(=O)N(Cc2cc(Cl)c3c(c2)OCCCO3)CC(C)C)ccc1F (racemic) [(±)-2-Methyl-3-((3-methoxy-4-fluoro)benzylamino)-N-(9-chloro-3,4-dihydro-2H-1,5-benzodioxepin-7-ylmethyl)-N-isobutylpropanamide] | 11.6
CC(=O)Oc1cccc(CN2CCOC(C(=O)N(Cc3cc(Cl)c4c(c3)OCCCO4)CC(C)C)C2)c1 (racemic) [(±)-(3R)-1-(3-acetoxybenzyl)-N-(9-chloro-3,4-dihydro-2H-1,5-benzodioxepin-7-ylmethyl)-N-isobutylmorpholine-3-carboxamide] | 8.5
CC(C)CN(Cc1cnc2c(c1)OCCCO2)C(=O)C1CCCN(Cc2cccc3cc[nH]c23)C1 (single isomer, unassigned; (-)) | 104
CC(=O)Oc1cccc(CN2CCC[C@@H](C(=O)N(Cc3cc(Cl)c4c(c3)OCCCO4)CC(C)C)C2)c1 [(−)-(3R)-1-(3-acetoxybenzyl)-N-(9-chloro-3,4-dihydro-2H-1,5-benzodioxepin-7-ylmethyl)-N-isobutylpiperidine-3-carboxamide] | 107
COc1cc(F)ccc1CN1CCC[C@@H](C(=O)N(Cc2cc(Cl)c3c(c2)OCCCO3)CC(C)C)C1 [(−)-(3R)-1-(4-Fluoro-2-methoxybenzyl)-N-(9-chloro-3,4-dihydro-2H-1,5-benzodioxepin-7-ylmethyl)-N-isobutylpiperidine-3-carboxamide] | 65.2
COc1cc(F)ccc1CN1CC[C@@H](C(=O)N(Cc2cc(Cl)c3c(c2)OCCCO3)CC(C)C)C1 [(−)-(3R)-1-(4-Fluoro-2-methoxybenzyl)-N-(9-chloro-3,4-dihydro-2H-1,5-benzodioxepin-7-ylmethyl)-N-isobutylpyrrolidine-3-carboxamide] | 7.72
COc1cc(CN2CCC[C@@H](C(=O)N(Cc3cc(Cl)c4c(c3)OCCCO4)CC(C)C)C2)ccc1F [(−)-(3R)-1-(4-Fluoro-3-methoxybenzyl)-N-(9-chloro-3,4-dihydro-2H-1,5-benzodioxepin-7-ylmethyl)-N-isobutylpiperidine-3-carboxamide] | 8.68
COc1cc(CN2CC[C@@H](C(=O)N(Cc3cc(Cl)c4c(c3)OCCCO4)CC(C)C)C2)ccc1F [(−)-(3R)-1-(4-Fluoro-3-methoxybenzyl)-N-(9-chloro-3,4-dihydro-2H-1,5-benzodioxepin-7-ylmethyl)-N-isobutylpyrrolidine-3-carboxamide] | 9.66
CC(C)CN(Cc1cc(Cl)c2c(c1)OCCCO2)C(=O)[C@@H]1CCCN(Cc2cccc3c2N(C)CC3)C1 [(−)-(3R)-1-(N-methyl-indolin-7-ylmethyl)-N-(9-chloro-3,4-dihydro-2H-1,5-benzodioxepin-7-ylmethyl)-N-isobutylpiperidine-3-carboxamide] | 87.3
CC(C)CN(Cc1cc(Cl)c2c(c1)OCC(F)(F)CO2)C(=O)[C@@H]1CCN(Cc2ccccc2)C1 [(−)-(3R)-1-Benzyl-N-(9-chloro-3,3-difluoro-3,4-dihydro-2H-1,5-benzodioxepin-7-ylmethyl)-N-isobutylpyrrolidine-3-carboxamide] | 224

Test system: not listed separately
Test: Chronic treatment in diet-induced diabetes model, circulating glucose
Type: in vivo, mice
Conditions: 0.1 and 0.01 mg/ml in drinking water for two weeks; measured 3, 7 and 14 days; high-fat diet 8 weeks (FIG. 3)
Method: Diet-induced diabetes models were created by feeding with high-fat diet for 8 weeks. These mice developed glucose intolerance and hyperglycemia. 3Cl-R-PLP was dissolved in drinking water and given to mice for two weeks. Circulating glucose levels were measured 3, 7 and 14 days after 3Cl-R-PLP treatment.

SMILES | circulating glucose levels
CC(C)CN(Cc1cc(Cl)c2c(c1)OCCCO2)C(=O)[C@@H]1CCN(Cc2ccccc2)C1 [Example 15, (3R)-1-Benzyl-N-(9-chloro-3,4-dihydro-2H-1,5-benzodioxepin-7-ylmethyl)-N-isobutyl pyrrolidine-3-carboxamide] | effectively decreased the glucose levels
